IC50 data for nine molecules are collected here from patent publication US8017612B2, “Piperazine compound and use thereof as a HCV polymerase inhibitor” (priority 2006, dated 2011).

For test [1], the target named is T1, HCV polymerase (NS5B) type 1a (Hepatitis C virus genotype 1a, UniProt P26664).
T1 construct: made in house; host or cells: Escherichia coli (by the 'similar method' of the 1b enzyme)
Briefly: Assay of enzyme (HCV polymerase) inhibitory activity, type 1a enzyme. In kind it is biochemical, HCV type 1a (cloned from the blood of patients). Particulars: HCV polymerase inhibitory activity IC50, 1a, type 1a enzyme. The essentials:
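Patient-derived type 1a NS5B (C-terminal 47-aa deletion, His-tagged, E. coli-expressed) at 1.5 μg/ml was reacted with 5 μg/ml 3′UTR-containing substrate RNA, 50 μM ATP/GTP/CTP, 2 μM UTP plus [3H]UTP, pH 7.5, 25° C for 60 min. TCA-precipitated RNA radioactivity was counted; IC50 from ± compound.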

For test [2], the target named is T2, HCV polymerase (NS5B) type 1b (Hepatitis C virus genotype 1b, UniProt P26663).
T2 construct: a region encoding NS5B (J Virol 1991 March, 65(3), 1105-13, 544 amino acids after deletion of 47 amino acids on the C-terminal); 6xHis (C); made in house; host or cells: Escherichia coli
Briefly: Assay of enzyme (HCV polymerase) inhibitory activity, type 1b enzyme. In kind it is biochemical, HCV BK strain (type 1b). As to conditions: HCV polymerase inhibitory activity IC50, 1b, type 1b enzyme. A digest of the protocol: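 NS5B from HCV BK strain (type 1b), C-terminal 47 aa deleted, C-terminal His6-tagged, E. coli-expressed, 0.5 μg/ml, with ~450 nt substrate RNA carrying the 3′ UTR (polyU, 3′X) at 5 μg/ml. Incubation 60 min at 25 °C with 50 μM ATP/GTP/CTP, 2 μM UTP plus [3H]UTP, pH 7.5 Tris.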

pIC50: −log10 of the molar value. A value given as a limit tells only on which side of the number the result lay.

`CCC(F)(F)c1ccc(CNC(=O)[C@H]2CN(c3nc4nc(C)nc(Cl)c4s3)CCN2S(=O)(=O)c2ccc(OC(F)(F)F)cc2)cc1` [Example 928, (R)-4-(7-chloro-5-methyl-thiazolo[4,5-d]pyrimidin-2-yl)-1-(4-trifluoromethoxy-benzenesulfonyl)-piperazine-2-carboxylic acid 4-(1,1-difluoro-propyl)-benzylamide]: the pIC50 in test [1] and in test [2] was greater than 7.00 in each case.

As for `COc1ncc2sc(N3CCN(S(=O)(=O)c4ccc(OC(F)(F)F)cc4)[C@@H](C(=O)NCc4ccc(OC(F)(F)F)cc4)C3)nc2n1` [Example 929, (R)-4-(5-methoxy-thiazolo[4,5-d]pyrimidin-2-yl)-1-(4-trifluoromethoxy-benzenesulfonyl)-piperazine-2-carboxylic acid 4-trifluoromethoxy-benzylamide], the negative-log IC50 (pIC50) in test [1] and in test [2] was greater than 7.00 in each case.

`CN(C)C(=O)c1nncc2sc(N3CCN(S(=O)(=O)c4ccc(OC(F)(F)F)cc4)[C@@H](C(=O)NCc4ccc(OC(F)(F)F)cc4)C3)nc12` [Example 930, 2-[(R)-4-(4-trifluoromethoxy-benzenesulfonyl)-3-(4-trifluoromethoxy-benzylcarbamoyl)-piperazin-1-yl]-thiazolo[4,5-d]pyridazine-4-carboxylic acid dimethylamide]: the pIC50 in test [1] and in test [2] was greater than 7.00 each time.

With `O=C(NCc1ccc(OC(F)F)cc1)[C@H]1CN(c2nc3nc(Cl)ncc3s2)CCN1S(=O)(=O)c1ccc(OC(F)(F)F)cc1` [Example 931, (R)-4-(5-chloro-thiazolo[4,5-d]pyrimidin-2-yl)-1-(4-trifluoromethoxy-benzenesulfonyl)-piperazine-2-carboxylic acid 4-difluoromethoxy-benzylamide], the pIC50 in test [1] and in test [2] was greater than 7.00 each time.

`O=C(NCc1ccc(OC(F)F)cc1)[C@H]1CN(c2nc3ncncc3s2)CCN1S(=O)(=O)c1ccc(OC(F)(F)F)cc1` [Example 932, (R)-4-thiazolo[4,5-d]pyrimidin-2-yl-1-(4-trifluoromethoxy-benzenesulfonyl)-piperazine-2-carboxylic acid 4-difluoromethoxy-benzylamide]: the pIC50 in test [1] and in test [2] was greater than 7.00 throughout.

Regarding `Cc1nnc2sc(N3CCN(S(=O)(=O)c4ccc(OC(F)(F)F)cc4)[C@@H](C(=O)NCc4ccc(OC(F)(F)F)cc4)C3)nn12` [Example 933, (R)-4-(3-methyl-[1,2,4]triazolo[3,4-b][1,3,4]thiadiazol-6-yl)-1-(4-trifluoromethoxy-benzenesulfonyl)-piperazine-2-carboxylic acid 4-trifluoromethoxy-benzylamide], the negative-log IC50 (pIC50) in test [1] and in test [2] was greater than 7.00 each time.

For `CCC(F)(F)c1ccc(CNC(=O)[C@H]2CN(c3nc4nc(C)nc(Cl)c4s3)CCN2S(=O)(=O)c2ccc(C(F)(F)F)cc2)cc1` [Example 934, (R)-4-(7-chloro-5-methyl-thiazolo[4,5-d]pyrimidin-2-yl)-1-(4-trifluoromethyl-benzenesulfonyl)-piperazine-2-carboxylic acid 4-(1,1-difluoro-propyl)-benzylamide], the pIC50 in test [1] and in test [2] was greater than 7.00 in each case.

Consider `CCC(F)(F)c1ccc(CNC(=O)[C@H]2CN(c3nc4nc(C)ncc4s3)CCN2S(=O)(=O)c2ccc(C(F)(F)F)cc2)cc1` [Example 935, (R)-4-(5-methyl-thiazolo[4,5-d]pyrimidin-2-yl)-1-(4-trifluoromethyl-benzenesulfonyl)-piperazine-2-carboxylic acid 4-(1,1-difluoro-propyl)-benzylamide], for which the pIC50 in test [1] and in test [2] was greater than 7.00 in each case.

With `O=C(NCc1ccc(OC(F)(F)F)cc1)[C@H]1CN(C(=O)Nc2nnc(Br)s2)CCN1S(=O)(=O)c1ccc(OC(F)(F)F)cc1` [Example 936, (R)-4-(4-trifluoromethoxy-benzenesulfonyl)-piperazine-1,3-dicarboxylic acid 1-[(5-bromo-[1,3,4]thiadiazol-2-yl)-amide] 3-(4-trifluoromethoxy-benzylamide)], the pIC50 in test [1] and in test [2] was less than 6.00 throughout.

As a reminder, the pIC50 is the IC50 on a negative log10 scale, so that one unit is a factor of ten. High values mean a low IC50, low ones a high IC50.
